Reference: US4572913A, “Use of 3-(arylmethyleneamino)-1-aryl-2-pyrazolines in the prophylaxis and treatment of inflammation, pain, pyresis, and asthma” (Burroughs Wellcome Co., priority 1980, dated 1986)

Tests used:
cyclo-oxygenase = assay: inhibition of cyclo-oxygenase, enzyme assay according to the method of Blackwell and Flower; type: biochemical
lipoxygenase = assay: inhibition of lipoxygenase, enzyme assay according to the method of Blackwell and Flower; type: biochemical

cyclo-oxygenase, sequence (P23219 24-599): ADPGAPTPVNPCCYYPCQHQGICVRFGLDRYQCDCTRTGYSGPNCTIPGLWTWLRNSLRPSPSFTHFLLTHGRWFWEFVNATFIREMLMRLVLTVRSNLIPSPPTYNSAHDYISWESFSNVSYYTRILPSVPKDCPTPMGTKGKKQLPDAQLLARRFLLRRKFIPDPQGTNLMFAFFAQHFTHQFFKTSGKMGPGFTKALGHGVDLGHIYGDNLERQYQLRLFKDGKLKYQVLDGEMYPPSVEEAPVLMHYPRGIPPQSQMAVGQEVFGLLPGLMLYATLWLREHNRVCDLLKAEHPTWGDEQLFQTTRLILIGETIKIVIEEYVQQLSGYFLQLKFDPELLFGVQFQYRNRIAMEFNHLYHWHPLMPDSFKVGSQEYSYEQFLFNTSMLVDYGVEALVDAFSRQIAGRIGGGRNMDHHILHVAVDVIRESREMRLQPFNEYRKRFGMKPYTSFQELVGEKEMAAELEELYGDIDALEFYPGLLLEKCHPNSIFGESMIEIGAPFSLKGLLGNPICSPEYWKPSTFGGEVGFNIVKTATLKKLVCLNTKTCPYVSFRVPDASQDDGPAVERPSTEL

| IC50 (cyclo-oxygenase) | IC50 (lipoxygenase) | Structure (SMILES) |
| --- | --- | --- |
| 10 µM | 6 µM | FC(F)(F)c1cccc(N2CCC(N=Cc3cccc4ccccc34)=N2)c1 [Example 7, 3-(1-naphthylmethyleneamino)-1-(3-trifluoromethylphenyl)-2-pyrazoline] |
| ~1 µM | ~1 µM | COc1ccc(C=NC2=NN(c3ccc(Br)c(C(F)(F)F)c3)CC2)cc1 [Example 12, 1-(4-bromo-3-trifluoromethylphenyl)-3-(4-methoxybenzylideneamino)-2-pyrazoline] |
| < 1 µM | < 1 µM | CC(C)(C)c1cccc(N2CCC(N)=N2)c1 [Example 13, 3-Amino-1-(3-t-butylphenyl)-2-pyrazoline] |
| < 1 µM | 1 µM | FC(F)(F)c1cccc(N2CCC(N=Cc3ccc[nH]3)=N2)c1 [Example 3, 3-(2-pyrrolylmethyleneamino)-1-(3-trifluoromethylphenyl)-2-pyrazoline] |
| ~3 µM | < 1 µM | FC(F)(F)c1cccc(N2CCC(N=Cc3ccccc3)=N2)c1 [Example 15, 3-Benzylideneamino-1-(3-trifluoromethylphenyl)-2-pyrazoline] |
| ~1 µM | ~1 µM | CC1CN(c2cccc(C(F)(F)F)c2)N=C1N=Cc1ccccc1O (stereo not shown) [Example 18, 4-Methyl-3-salicylideneamino-1-(3-trifluoromethylphenyl)-2-pyrazoline] |
| ~5 µM | > 10 µM | Oc1ccccc1C=NC1=NN(c2ccc(Br)c(C(F)(F)F)c2)CC1 [Example 11, 1-(4-bromo-3-trifluoromethylphenyl)-3-(2-hydroxybenzylideneamino)-2-pyrazoline] |
| ~3 µM | ~3 µM | Oc1ccccc1C=NC1=NN(c2cccc(C(F)(F)F)c2)CC1 [Example 4, 3-salicylideneamino-1-(3-trifluoromethylphenyl)-2-pyrazoline] |
| 5 µM | 12 µM | Cc1ccc(C=NC2=NN(c3ccc4ccccc4c3)CC2)cc1 [Example 8, 3-(4-methylbenzylideneamino)-1-(2-naphthyl)-2-pyrazoline] |
| 1 µM | ~3 µM | FC(F)(F)c1cccc(N2CCC(N=Cc3ccccn3)=N2)c1 [Example 2, 3-(2-pyridylmethyleneamino)-1-(3-trifluoromethylphenyl)-2-pyrazoline] |

| Structure (SMILES) | IC50 (cyclo-oxygenase) | IC50 (lipoxygenase) |
| --- | --- | --- |
| O=C(O)CCCCOc1cccc(O)c1C=NC1=NN(c2cccc(C(F)(F)F)c2)CC1 [Example 1, 3-(2-4'-carboxybutoxy-6-hydroxybenzylideneamino)-1-(3-trifluoromethylphenyl)-2-pyrazoline] | < 3 µM | 10 to 20 µM |
